Laboratory results taken from US11298422B2, “Treating tumors with TTFields and an aurora kinase inhibitor” (Novocure Limited, priority 2018, dated 2022).

Legend:
[1] = test system: primary glioblastoma cell line HT12347; assay: Normalized cell count, primary glioblastoma cells; assay type: cell-based; conditions: primary glioblastoma cell-lines, compared to each treatment alone; Mann-Whitney-U-test, p<0.01
Protocol: In addition to U87-MG cells, primary tumor-cell lines were established from glioblastoma tissue taken intraoperatively. TTFields (1.6 V/cm RMS, 200 kHz) were applied for 72 hours using the InovitroTM system. AZD1152 was added to the media in concentrations of up to 100 nmol/l. Cell counts, cell cycle and clonogenic potential were determined at the end of treatment. Primary tumor-cell-lines were analyzed. In addition, MLN8237, an Aurora A kinase inhibitor, was tested in concentrations up to 50 nmol/l for the treatment of U87-MG and primary tumor-cell lines to further establish Aurora kinase inhibition as a target for combination therapy with TTFields. […] FIGS. 5A and 5B show the normalized cell counts after treatment with TTFields and AZD1152, alone and in combination, on U87-MG (FIG. 5A) and primary glioblastoma cell line HT12347 (FIG. 5B) at the indicated AZD1152 concentration and […] frequency. The exemplary box plots show the normalized cell count after treatment with AZD1152 alone, TTFields alone, and combination of AZD1152 and TTFields. “***” marks significant differences where p<0.001. […] FIGS. 8A-8B show the normalized cell counts after treatment with TTFields and MLN8237, alone and in combination, on U87-MG (FIG. 8A) and primary glioblastoma cell line HT12347 (FIG. 8B). […]

[2] = test system: primary glioblastoma cell line HT12347; assay: Light microscopy, primary glioblastoma cells; assay type: cell-based; conditions: HT12347, TTFields and MLN8237 combination vs control and each alone (FIGS. 10A-10D)
Protocol: Cells were treated with control, AZD1152, TTFields, or a combination of both. […] FIGS. 10A-10D show exemplary light microscopy images of primary glioblastoma cells HT12347 after the following treatment: 10A: control; 10B: after […] treatment; 10C: after treatment with MLN8237 alone; 10D: after treatment with TTFields and MLN8237.

[3] = test system: glioblastoma cell line HT 12347; assay: PI (propium iodide) staining of DNA content, primary glioblastoma cells; assay type: cell-based; conditions: HT 12347, TTFields combined with MLN8237 (FIGS. 9A-9E)
Excerpt: FIGS. 9A-9E show exemplary PI (propium iodide) staining results showing DNA content after treatment with TTFields alone, […] alone, and in combination in glioblastoma cell line HT 12347 with corresponding cell cycle histograms. FIG. 9A is a summary, with 2n in light gray, 4n in dark gray, and r>4n in black; FIG. 9B is a cell cycle histogram for the control; FIG. 9C is a cell cycle histogram for […] treatment alone; FIG. 9D is a cell cycle histogram for MLN8237 alone; and FIG. 9E is a cell cycle histogram for TTFields combined with MLN8237.

U87-MG = assay: Normalized cell count, U87-MG (additional study); assay type: cell-based, human; conditions: compared to each treatment alone, Mann-Whitney-U-test, p<0.01
Protocol: In addition to U87-MG cells, primary tumor-cell lines were established from glioblastoma tissue taken intraoperatively. TTFields (1.6 V/cm RMS, 200 kHz) were applied for 72 hours using the Inovitro™ system. AZD1152 was added to the media in concentrations of up to 100 nmol/l. Cell counts, cell cycle and clonogenic potential were determined at the end of treatment. Primary tumor-cell-lines were analyzed. In addition, MLN8237, an Aurora A kinase inhibitor, was tested in concentrations up to 50 nmol/l for the treatment of U87-MG and primary tumor-cell lines to further establish Aurora kinase inhibition as a target for combination therapy with TTFields. […] FIGS. 8A-8B show the normalized cell counts after treatment with TTFields and MLN8237, alone and in combination, on U87-MG (FIG. 8A) and primary glioblastoma cell line HT12347 (FIG. 8B). The exemplary box plots show the normalized cell count after treatment with TTFields alone, MLN8237 alone, and combination of MLN8237 and TTFields in U87 cells ([…]), and in HT12347 glioblastoma cells (FIG. 8B). The greatest reduction in the percentage of living cells in relation to the control is shown with the combination of TTFields and MLN8237.

## COc1cc(Nc2ncc3c(n2)-c2ccc(Cl)cc2C(c2c(F)cccc2OC)=NC3)ccc1C(=O)O [MLN8237, Alisertib]
[1]
  cell numbers after combined treatment of MLN8237 and TTFields: significant decrease of cell numbers
[2]
  number of cells in light microscopy images: lowest number of cells
[3]
  multinuclear and polyploid cells (PI staining, DNA content): higher number of multinuclear and polyploid cells
U87-MG
  cell numbers after combined treatment of MLN8237 and TTFields: significant decrease of cell numbers
